From patent publication US7803801B2, “Aminopyridine compounds having Syk inhibitory activity” (Japan Tobacco, Inc., priority 2005, dated 2010)
Like-named read-outs stand apart in the source and are kept apart here.

Assays:
[1] = target: GST-Syk Full Protein (human) (Homo sapiens, UniProt P43405); assay: Syk kinase inhibition test (HTRF method); format: biochemical; conditions: read-out: sykHTRF ave IC50
In short: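 Human GST-Syk full-length (6.4 nM) phosphorylated biotin-EDPDYEWPSA-NH2 (250 nM) with 100 μM ATP in HEPES pH 7.0/MgCl2 buffer, 2% DMSO, 30 min at room temperature. EDTA stop, then HTRF detection (streptavidin-XL665, Eu anti-phosphotyrosine) after 1 h; 665/620 ratio read.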

[2] = tested on: cultured human mast cells; assay: Degranulation inhibition test using cultured human mast cells (IgE cross-linking, β-Hexosaminidase release); format: cell-based; conditions: Mast cell, cultured human mast cells, read-out: human degranulation ave. IC50
In short: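 CD34+ cord-blood cells cultured ≥8 weeks with SCF/IL-6/IL-3; FcεRI primed 5 days with rhIL-4 (1 ng/mL) and hIgE (0.5 μg/mL). Compound (0.1% DMSO) preincubated 10 min at 37 °C, then anti-IgE (final 10 μg/mL) 30 min; released β-hexosaminidase read at 405 nm versus total lysate, IC50 (M).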

[3] = HTRF, 100 μM ATP, 30 min room temperature, average
[4] = anti-hIgE stimulation, β-Hexosaminidase index, average

Row | IC50 [1, 3] [nM] | IC50 [2, 4] [nM] | IC50 ([1]; Tables 1-x, compounds A) [nM] | IC50 ([2]; Tables 1-x, compounds A) [nM] | Compound
1 | 100 to 1000 | 100 to 1000 | – | – | CC(=O)OC(Cc1ccc(O)cc1)c1ncc(-c2cccc(Nc3cc(C)ccn3)n2)s1 (stereo not drawn) [Compound A-366]
2 | 100 to 1000 | 100 to 1000 | – | – | CNC(=O)COCc1ncc(-c2cccc(Nc3cc(C)ccn3)n2)s1 [Compound A-367]
3 | 100 to 1000 | 100 to 1000 | – | – | Cc1ccnc(Nc2cccc(-c3cnc(COCC(=O)N(C)C)s3)n2)c1 [Compound A-368]
4 | 100 to 1000 | > 1000 | – | – | Cc1ccnc(Nc2cccc(-c3cnc(COCC(=O)N4CCC(O)CC4)s3)n2)c1 [Compound A-369]
5 | < 100 | 100 to 1000 | – | – | Cc1ccnc(Nc2cccc(-c3cnc(COCC(=O)N4CCNC(=O)C4)s3)n2)c1 [Compound A-370, 4-(2-{5-[6-(4-methylpyridin-2-ylamino)pyridin-2-yl]thiazol-2-ylmethoxy}acetyl)piperazin-2-one]
6 | 100 to 1000 | 100 to 1000 | – | – | Cc1ccnc(Nc2cccc(-c3cnc(C4CCN(C(=O)N(C)C)CC4)s3)n2)c1 [Compound A-371]
7 | < 100 | 100 to 1000 | – | – | CC(=O)N(C)[C@H](c1ccc(O)cc1)c1ncc(-c2cccc(Nc3cc(C)ccn3)n2)s1 [Compound A-372, N—((R)-(4-hydroxyphenyl)-{5-[6-(4-methylpyridin-2-ylamino)pyridin-2-yl]thiazol-2-yl}methyl)-N-methylacetamide]
8 | 100 to 1000 | 100 to 1000 | – | – | Cc1ccnc(Nc2cccc(-c3cnc([C@@H]4CCC(=O)N4C)s3)n2)c1 [Compound A-373]
9 | 100 to 1000 | > 1000 | – | – | Cc1ccnc(Nc2cccc(-c3cnc(COCC(=O)N4C[C@@H](O)[C@@H](O)C4)s3)n2)c1 [Compound A-374]
10 | 100 to 1000 | 100 to 1000 | – | – | Cc1ccnc(Nc2cccc(-c3cnc([C@@H](O)CN(C)C)s3)n2)c1 [Compound A-375]
11 | – | – | 100 to 1000 | 100 to 1000 | CC(=O)N(C)[C@@H](Cc1ccc(O)cc1)c1ncc(-c2cccc(Nc3cc(C)ccn3)n2)s1 [Compound A-376]
12 | – | – | 100 to 1000 | 100 to 1000 | CC(=O)Oc1ccc(C(=O)N2CCC(c3ncc(-c4cccc(Nc5cc(C)ccn5)n4)s3)CC2)cc1 [Compound A-377]
13 | – | – | 100 to 1000 | 100 to 1000 | Cc1ccnc(Nc2cccc(-c3cnc(C4CCN(C(=O)c5ccc(O)cc5)CC4)s3)n2)c1 [Compound A-378]
14 | – | – | 100 to 1000 | 100 to 1000 | Cc1ccnc(Nc2cccc(-c3cnc(CN4CCC[C@H]4CO)s3)n2)c1 [Compound A-379]
15 | – | – | 100 to 1000 | 100 to 1000 | Cc1ccnc(Nc2cccc(-c3cnc(CN4CCC(O)C4)s3)n2)c1 (stereo not drawn) [Compound A-380]
16 | – | – | 100 to 1000 | 100 to 1000 | Cc1ccnc(Nc2cccc(-c3cnc(CN4C[C@@H](O)[C@@H](O)C4)s3)n2)c1 [Compound A-381]
17 | – | – | 100 to 1000 | 100 to 1000 | Cc1ccnc(Nc2cccc(-c3cnc(CN4CCN(c5ccc(O)cc5)CC4)s3)n2)c1 [Compound A-382]
18 | – | – | < 100 | 100 to 1000 | Cc1ccnc(Nc2cccc(-c3cnc(CN4CC(=O)NC(=O)C4)s3)n2)c1 [Compound A-383, 4-{5-[6-(4-methylpyridin-2-ylamino)pyridin-2-yl]thiazol-2-ylmethyl}piperazine-2,6-dione]
19 | – | – | 100 to 1000 | 100 to 1000 | CN[C@@H](Cc1ccc(O)cc1)c1ncc(-c2cccc(Nc3cc(C)ccn3)n2)s1 [Compound A-384]
20 | – | – | 100 to 1000 | 100 to 1000 | Cc1ccnc(Nc2cccc(-c3cnc(CN4C(=O)CC(C)(C)CC4=O)s3)n2)c1 [Compound A-385]
21 | – | – | 100 to 1000 | 100 to 1000 | Cc1ccnc(Nc2cccc(-c3cnc(CNC4CCN(C(=O)OC(C)(C)C)CC4)s3)n2)c1 [Compound A-386]
22 | – | – | 100 to 1000 | 100 to 1000 | Cc1ccnc(Nc2cccc(-c3cnc(CN4C(=O)COCC4=O)s3)n2)c1 [Compound A-387]
23 | – | – | > 1000 | > 1000 | Cc1ccnc(Nc2cccc(-c3cnc(COCC(=O)N4CCN(C)C(=O)C4)s3)n2)c1 [Compound A-388]
24 | – | – | 100 to 1000 | 100 to 1000 | Cc1ccnc(Nc2cccc(-c3cnc(C4CCCNC4)s3)n2)c1 (stereo not drawn) [Compound A-390]

Row | IC50 [1, 3] [nM] | IC50 [2, 4] [nM] | IC50 ([1]; Tables 1-x, compounds A) [nM] | IC50 ([2]; Tables 1-x, compounds A) [nM] | Compound
25 | – | – | > 1000 | > 1000 | Cc1ccnc(Nc2cccc(-c3cnc(CN4C(=O)CN(Cc5ccccc5)CC4=O)s3)n2)c1 [Compound A-391]
26 | – | – | 100 to 1000 | 100 to 1000 | Cc1ccnc(Nc2cccc(-c3cnc(C4CCCN(S(C)(=O)=O)C4)s3)n2)c1 (stereo not drawn) [Compound A-392]
27 | – | – | 100 to 1000 | > 1000 | Cc1ccnc(Nc2cccc(-c3cnc(COCC(=O)N4CC(=O)NC(=O)C4)s3)n2)c1 [Compound A-393]
28 | – | – | 100 to 1000 | 100 to 1000 | Cc1ccnc(Nc2cccc(-c3cnc([C@H](CO)NC(=O)c4ccc(O)cc4)s3)n2)c1 [Compound A-394]
29 | – | – | 100 to 1000 | > 1000 | Cc1ccnc(Nc2cccc(-c3cnc(CNC(=O)c4cc(C)on4)s3)n2)c1 [Compound A-395]
30 | – | – | 100 to 1000 | > 1000 | Cc1ccnc(Nc2cccc(-c3cnc(CNC(=O)c4c[nH]cn4)s3)n2)c1 [Compound A-396]
31 | – | – | 100 to 1000 | 100 to 1000 | Cc1ccnc(Nc2cccc(-c3cnc(C4CCN(C(=O)CS(C)(=O)=O)CC4)s3)n2)c1 [Compound A-397]
32 | – | – | 100 to 1000 | > 1000 | Cc1ccnc(Nc2cccc(-c3cnc(C4CCN(S(=O)(=O)C(C)C)CC4)s3)n2)c1 [Compound A-398]
33 | – | – | > 1000 | > 1000 | Cc1ccnc(Nc2cccc(-c3cnc(COCC(=O)N4C[C@H](NCc5ccccc5)[C@@H](O)C4)s3)n2)c1 [Compound A-399]
34 | – | – | 100 to 1000 | 100 to 1000 | Cc1ccnc(Nc2cccc(-c3cnc(CN4C[C@H](NCc5ccccc5)[C@@H](O)C4)s3)n2)c1 [Compound A-400]
35 | – | – | > 1000 | 100 to 1000 | Cc1ccnc(Nc2cccc(-c3cnc(CN4CCCCC4=O)s3)n2)c1 [Compound A-401]
36 | – | – | > 1000 | > 1000 | CNC(=O)CN1C(=O)OC[C@H]1c1ncc(-c2cccc(Nc3cc(C)ccn3)n2)s1 [Compound A-402]
37 | – | – | > 1000 | > 1000 | Cc1ccnc(Nc2cccc(-c3cnc(N4CCN(C(=O)OC(C)(C)C)CC4)s3)n2)c1 [Compound A-403]
38 | – | – | > 1000 | > 1000 | Cc1ccnc(Nc2cccc(-c3cnc([C@@H]4COC(=O)N4CC(=O)N4C[C@@H](O)[C@@H](O)C4)s3)n2)c1 [Compound A-404]
39 | – | – | 100 to 1000 | 100 to 1000 | Cc1ccnc(Nc2cccc(-c3cnc([C@@H]4CN(C)C(=O)O4)s3)n2)c1 [Compound A-405]
40 | – | – | > 1000 | > 1000 | Cc1ccnc(Nc2cccc(-c3cnc([C@@H]4COC(=O)N4CC(=O)O)s3)n2)c1 [Compound A-407]
41 | – | – | > 1000 | > 1000 | Cc1ccnc(Nc2cccc(-c3cnc([C@@H]4COC(=O)N4CC(=O)N(C)C)s3)n2)c1 [Compound A-408]
42 | – | – | < 100 | < 100 | Cc1ccnc(Nc2cccc(-c3cnc([C@@H]4CNC(=O)O4)s3)n2)c1 [Compound A-409, (S)-5-{5-[6-(4-methylpyridin-2-ylamino)pyridin-2-yl]thiazol-2-yl}oxazolidin-2-one]
43 | – | – | 100 to 1000 | < 100 | Cc1ccnc(Nc2cccc(-c3cnc(N4CCN(C=O)CC4)s3)n2)c1 [Compound A-410]
44 | – | – | > 1000 | > 1000 | CC(=O)N[C@H]1CN(C(=O)COCc2ncc(-c3cccc(Nc4cc(C)ccn4)n3)s2)C[C@@H]1O [Compound A-411]
45 | – | – | 100 to 1000 | 100 to 1000 | Cc1ccnc(Nc2cccc(-c3cnc(N4CCN(S(C)(=O)=O)CC4)s3)n2)c1 [Compound A-412]
46 | – | – | 100 to 1000 | 100 to 1000 | Cc1ccnc(Nc2cccc(-c3cnc(N4CCN(C(=O)C5CCC(O)CC5)CC4)s3)n2)c1 (stereo not drawn) [Compound A-413]
47 | – | – | 100 to 1000 | 100 to 1000 | CC(=O)N[C@H]1CN(Cc2ncc(-c3cccc(Nc4cc(C)ccn4)n3)s2)C[C@@H]1O [Compound A-414]
48 | – | – | 100 to 1000 | 100 to 1000 | Cc1ccnc(Nc2cccc(-c3cnc(CN4C(=O)CNCC4=O)s3)n2)c1 [Compound A-415]
